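Assay format: 96-well plates, 48-hour exposure. Here, GI50 denotes the concentration required for 50% inhibition of growth. Definition used: TGI = concentration required for complete inhibition of growth.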 Where a SMILES comes first, the peptide text is derived from it. [ ]: non-standard residue; d: D form. Phe(F5) = N[CH](Cc1c(F)c(F)c(F)c(F)c1F)C(=O)O
Assays:
Experiment in all cases: inhibition of tumour cell growth, NCI panel, 48 h
ACHN renal = system: ACHN renal
HCC-2998 colon = system: HCC-2998 colon
HOP-62 NSCLC = system: HOP-62 NSCLC
HS 578T breast = system: HS 578T breast
IGROV1 ovarian = system: IGROV1 ovarian
KM12 colon = system: KM12 colon
LOX IMVI melanoma = system: LOX IMVI melanoma
M14 melanoma = system: M14 melanoma
PC-3 prostate = system: PC-3 prostate
RPMI-8226 leukemia = system: RPMI-8226 leukemia

Row | Structure (SMILES) | GI50 (ACHN renal) [µM] | TGI (ACHN renal) [µM] | GI50 (HCC-2998 colon) [µM] | TGI (HCC-2998 colon) [µM] | GI50 (HOP-62 NSCLC) [µM] | TGI (HOP-62 NSCLC) [µM] | GI50 (HS 578T breast) [µM] | TGI (HS 578T breast) [µM] | GI50 (IGROV1 ovarian) [µM] | TGI (IGROV1 ovarian) [µM] | GI50 (KM12 colon) [µM] | TGI (KM12 colon) [µM] | GI50 (LOX IMVI melanoma) [µM] | TGI (LOX IMVI melanoma) [µM] | GI50 (M14 melanoma) [µM] | TGI (M14 melanoma) [µM] | GI50 (PC-3 prostate) [µM] | TGI (PC-3 prostate) [µM] | GI50 (RPMI-8226 leukemia) [µM] | TGI (RPMI-8226 leukemia) [µM]
1 | O=c1cc(CNc2cc(F)cc(F)c2)c2ccc(I)cc2[nH]1 | 0.75 | > 100 | > 64.9 | > 100 | 1.98 | > 100 | 0.41 | > 100 | 2.56 | > 100 | 0.423 | > 100 | 0.679 | > 100 | 0.52 | > 100 | 0.571 | > 100 | 0.759 | > 100
2 | CC(C)(C(=O)NN)c1ccccc1 |  | > 100 |  | > 100 |  | > 100 |  | > 100 |  | > 100 |  | > 100 |  | > 100 |  | > 100 |  | > 100 |  | > 100
3 | NC(=O)[C@H]1CCN(c2ncnc(N)c2F)C[C@@H]1N1CCC[C@@H](Nc2cc(Cl)cc(C(F)(F)F)c2)C1=O | 7 | 76.3 | 14.6 | 36.3 | 22 | > 100 | 15.5 | > 100 | 5.12 | > 100 | 6.31 | > 100 | 11.2 | 27.1 | 12.8 | 36.8 | 17.7 | > 100 | 16.8 | 56.3
4 | COc1cc(Cn2cc3c(c2)-c2oncc2CC3)cc(OC)c1OC | 0.134 | > 100 | 0.0413 | 17 | 0.0479 | > 100 | 0.0306 | > 51.3 | 0.0456 | 24.8 | 0.0312 |  | 0.0716 | > 100 | 0.0274 | 38.9 | 0.0526 | > 100 | 0.0459 | 10.4
5 | c1ccc2[nH]c(-c3ccc(N4CCN(c5ccc(-c6nc7ccccc7[nH]6)cc5)CC4)cc3)nc2c1 | > 100 | > 100 | > 100 | > 100 | 11.4 | 75.7 | > 100 | > 100 | 69.6 | > 100 | 71.1 | > 100 | > 100 | > 100 | 12.4 | > 100 | > 100 | > 100 | 40 | > 100
6 | CCN1C(=O)N(CC)C2C1NN=c1s/c(=C3\C(=O)N(C(C)C)c4ccccc43)c(=O)n12 (centres undefined) | 0.525 | > 42.2 | 0.357 | > 20.8 | 0.441 | 42.7 | 0.336 | 40.3 | 0.586 | > 100 | 0.384 | > 100 | 0.463 | > 100 | 0.376 | > 100 | 0.412 | > 100 | 0.429 | > 100
7 | Nc1nc(/C=C\c2ccc([N+](=O)[O-])o2)nc(N2CCN(c3ccccc3)CC2)n1 | 4.45 | 21.6 | 10.1 | 25.8 | 17.5 | 51.3 | 25.3 | 93 | 5.31 | 32.3 | 11.5 | 62.9 | 3.49 | 21.2 | 4.01 | 26.7 | 7.81 | 60.6 | 3.62 | > 100
8 | CCN(CC)CCOc1ccc(C(=C(C)c2ccc(Cl)cc2)c2ccc(OCCN(CC)CC)cc2)cc1 | 0.614 | 1.15 | 0.574 | 1.06 | 0.995 | 2.91 | 0.71 | 1.85 | 0.609 | 1.19 | 0.666 | 1.37 | 0.552 | 1.03 | 0.633 | 1.14 | 0.63 | 1.36 | 0.668 | 1.49
9 | COc1ccc2c(c1)CCC1C2CCC2(C)C1CCC2(O)CNC(=O)CCCCC1CCSS1 (centres undefined) | 53.6 | > 100 | 2.13 | 5.52 | 25 | > 100 | 13.9 | > 100 | 22.7 | > 100 | 2.26 | > 100 | 4.37 | > 100 | 20.8 | > 100 | 5.91 | > 100 | 2.43 | 9.48
10 | CC1(C)CCC2(C(=O)OC3OC(CO)C(O)C(O)C3O)CC[C@]3(C)C(=CCC4C5(C)CC[C@H](OC6OC(C(=O)O)C(O)C(O)C6O)C(C)(C)C5CCC43C)C2C1 (some centres undefined) | 6.3 | 12.6 | 0.89 | 1.64 | 2.22 | 7.6 | 1.62 | 4.51 | 1.7 | > 50 | 2.08 | 9.47 | 0.807 | 1.49 | 1.47 | 4.33 | 1.26 | 3.47 | 0.776 | 10.2
11 | Fc1ccc2[nH]cc(Cc3c[nH]c4ccc(F)cc34)c2c1 | 26.1 | 63 | 13.3 | 30.3 | 19.6 | 40.9 | 18.5 | 44.5 | 16.9 | 41.6 | 12 | 30.2 | 16 | 47.1 | 20.2 | 42.9 | 15 | 35 | 21 | 62.2
12 | CC(=O)OC1c2ccccc2CC2(OC(C)=O)c3ccccc3C12 (centres undefined) |  | > 100 |  | > 100 |  | > 100 |  | > 100 |  | > 100 |  | > 100 |  | > 100 |  | > 100 |  | > 100 |  | > 100
13 | N#Cc1ncc(/N=C/c2ccc(N(CCCl)CCCl)cc2)s1 | 5.13 | 41.6 | 23.9 | > 100 | 17.9 | > 100 | 63.1 | > 100 | 40.4 | > 100 | 76.5 | > 100 | 6.89 | > 100 | 35.2 | > 100 | 34.9 | > 100 | 53.7 | > 100
14 | CN(C)CCNC(=O)c1cccn2c(=O)c3cc4ccccc4cc3nc12 | 0.0422 | > 36.4 | 0.241 | 1.06 | 0.0784 | 0.554 | 0.153 | 1.76 | 0.0396 | 2.17 | 0.161 | 1.41 | 0.0624 | 0.286 | 0.222 | 1.21 | 0.194 | > 22 | 0.24 | 
15 | COC(=O)C(CC(C)C)NC(=O)C(Cc1cnc[nH]1)NC(=O)CNC(=O)C(NC(=O)C(C)NC(=O)C(Cc1c[nH]c2ccccc12)NC(=O)C(CCC(=O)O)NC(=O)C(N)Cc1c(F)c(F)c(F)c(F)c1F)C(C)C (centres undefined) (H-[Phe(F5)]EWAVGHL-OMe; configuration not given here) | > 100 | > 100 | > 100 | > 100 | > 100 | > 100 |  | > 12.5 | > 100 | > 100 | > 100 | > 100 |  | > 12.5 | > 100 | > 100 |  | > 12.5 | > 100 | > 100
16 | C[C@]12CC[C@H]3[C@@H](CCC4=CC(=O)CC[C@@H]43)[C@@H]1CC[C@@H]2OC(=O)N(CCCl)N=O | 0.359 | > 37.7 | 2.2 | 12.4 | 3.17 | 26.1 | 5.2 | 34.2 | 0.172 | 15.8 | 2.95 | 19.2 | 1.1 | 23.9 | 4.27 | 21.4 | 5.02 | > 48.1 | 0.983 | 

From PubChem BioAssay (NCI)
